From the supplement of paper PMC10307832

Experiments:
Assay in all cases: relative viability (nuclei count vs DMSO), 5 days (fraction); higher = more cells survive
H3255 = tested on: H3255
Procedure, shortened: (§1)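 Nuclei were stained with Hoechst during a one-step fixation (final 0.05% Triton X-100, 1% formaldehyde, 1 ug/ml Hoechst) carried out 5 days after dosing, then counted on 4× images. The cells, lung cancer lines in 1536-well plates, had been dosed by pin tool the day after seeding with one drug alone or a fixed anchor-drug dose plus five library-drug doses (not always all listed) in √10 steps. Relative viability is the nuclei count in treated wells divided by that in vehicle wells, and each value is the median of duplicate plates.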

LCLC-103H = tested on: LCLC-103H
Procedure, shortened: as §1

LU99A = tested on: LU99A
Procedure, shortened: as §1

LCLC-97TM1 = tested on: LCLC-97TM1
Procedure, shortened: as §1

PC-14 = tested on: PC-14
Procedure, shortened: as §1

NCI-H460 = tested on: NCI-H460
Procedure, shortened: as §1

PC-3 [JPC-3] = tested on: PC-3 [JPC-3]
Procedure, shortened: as §1

SW 900 = tested on: SW 900
Procedure, shortened: as §1

NCI-H1793 = tested on: NCI-H1793
Procedure, shortened: as §1

NCI-H1944 = tested on: NCI-H1944
Procedure, shortened: as §1

NCI-H2347 = tested on: NCI-H2347
Procedure, shortened: as §1

LK-2 = tested on: LK-2
Procedure, shortened: as §1

NCI-H1651 = tested on: NCI-H1651
Procedure, shortened: as §1

NCI-H838 = tested on: NCI-H838
Procedure, shortened: as §1

RERF-LC-KJ = tested on: RERF-LC-KJ
Procedure, shortened: as §1

201T = tested on: 201T
Procedure, shortened: as §1

NCI-H727 = tested on: NCI-H727
Procedure, shortened: as §1

A-427 = tested on: A-427
Procedure, shortened: as §1

NCI-H23 = tested on: NCI-H23
Procedure, shortened: as §1

NCI-H650 = tested on: NCI-H650
Procedure, shortened: as §1

COc1cc(N2CCC(C(N)=O)CC2)ccc1Nc1nc(N)c(Cl)c(Nc2ccccc2S(=O)(=O)C(C)C)n1 [HG-5-88-01] + NC(=O)Nc1cc(-c2cccc(F)c2)sc1C(=O)N[C@H]1CCCNC1 [AZD7762] (partner 0.2 µM)
relative viability (H3255; first compound 0.04 µM): 1.16 | relative viability (H3255; first compound 0.1265 µM): 1.01 | relative viability (H3255; first compound 0.4 µM): 0.916 | relative viability (H3255; first compound 4 µM): 0.699 | relative viability (LCLC-103H; first compound 0.04 µM): 0.803 | relative viability (LCLC-103H; first compound 0.1265 µM): 0.761 | relative viability (LCLC-103H; first compound 0.4 µM): 0.616 | relative viability (LCLC-103H; first compound 1.265 µM): 0.828 | relative viability (LCLC-103H; first compound 4 µM): 0.697 | relative viability (LU99A; first compound 0.04 µM): 0.326 | relative viability (LU99A; first compound 0.1265 µM): 0.336 | relative viability (LU99A; first compound 0.4 µM): 0.369 | relative viability (LU99A; first compound 1.265 µM): 0.366 | relative viability (LU99A; first compound 4 µM): 0.295 | relative viability (LCLC-97TM1; first compound 0.04 µM): 0.251 | relative viability (LCLC-97TM1; first compound 0.1265 µM): 0.262 | relative viability (LCLC-97TM1; first compound 0.4 µM): 0.231 | relative viability (LCLC-97TM1; first compound 1.265 µM): 0.225 | relative viability (LCLC-97TM1; first compound 4 µM): 0.0952 | relative viability (PC-14; first compound 0.04 µM): 0.345 | relative viability (PC-14; first compound 0.1265 µM): 0.315 | relative viability (PC-14; first compound 0.4 µM): 0.343 | relative viability (PC-14; first compound 1.265 µM): 0.38 | relative viability (PC-14; first compound 4 µM): 0.0818 | relative viability (NCI-H460; first compound 0.04 µM): 0.7 | relative viability (NCI-H460; first compound 0.1265 µM): 0.63 | relative viability (NCI-H460; first compound 0.4 µM): 0.561 | relative viability (NCI-H460; first compound 1.265 µM): 0.611 | relative viability (NCI-H460; first compound 4 µM): 0.592 | relative viability (PC-3 [JPC-3]; first compound 0.04 µM): 0.863 | relative viability (PC-3 [JPC-3]; first compound 0.1265 µM): 0.703 | relative viability (PC-3 [JPC-3]; first compound 0.4 µM): 0.732 | relative viability (PC-3 [JPC-3]; first compound 1.265 µM): 0.713 | relative viability (PC-3 [JPC-3]; first compound 4 µM): 0.344 | relative viability (SW 900; first compound 0.04 µM): 0.582 | relative viability (SW 900; first compound 0.1265 µM): 0.713 | relative viability (SW 900; first compound 0.4 µM): 0.583 | relative viability (SW 900; first compound 1.265 µM): 0.517 | relative viability (SW 900; first compound 4 µM): 0.528 | relative viability (NCI-H1793; first compound 0.04 µM): 0.557 | relative viability (NCI-H1793; first compound 0.1265 µM): 0.409 | relative viability (NCI-H1793; first compound 0.4 µM): 0.379 | relative viability (NCI-H1793; first compound 1.265 µM): 0.452 | relative viability (NCI-H1793; first compound 4 µM): 0.186 | relative viability (NCI-H1944; first compound 0.04 µM): 0.586 | relative viability (NCI-H1944; first compound 0.1265 µM): 0.503 | relative viability (NCI-H1944; first compound 0.4 µM): 0.434 | relative viability (NCI-H1944; first compound 1.265 µM): 0.514 | relative viability (NCI-H1944; first compound 4 µM): 0.469 | relative viability (NCI-H2347; first compound 0.04 µM): 0.881 | relative viability (NCI-H2347; first compound 0.1265 µM): 0.9 | relative viability (NCI-H2347; first compound 0.4 µM): 0.82 | relative viability (NCI-H2347; first compound 1.265 µM): 0.718 | relative viability (NCI-H2347; first compound 4 µM): 0.804 | relative viability (LK-2; first compound 0.04 µM): 0.326 | relative viability (LK-2; first compound 0.1265 µM): 0.329 | relative viability (LK-2; first compound 0.4 µM): 0.301 | relative viability (LK-2; first compound 4 µM): 0.157 | relative viability (NCI-H1651; first compound 0.04 µM): 0.463 | relative viability (NCI-H1651; first compound 0.1265 µM): 0.447 | relative viability (NCI-H1651; first compound 0.4 µM): 0.439 | relative viability (NCI-H1651; first compound 1.265 µM): 0.342 | relative viability (NCI-H1651; first compound 4 µM): 0.321 | relative viability (NCI-H838; first compound 0.04 µM): 0.917 | relative viability (NCI-H838; first compound 0.1265 µM): 0.958 | relative viability (NCI-H838; first compound 0.4 µM): 0.881 | relative viability (NCI-H838; first compound 1.265 µM): 0.749 | relative viability (NCI-H838; first compound 4 µM): 0.847 | relative viability (RERF-LC-KJ; first compound 0.04 µM): 0.995 | relative viability (RERF-LC-KJ; first compound 0.1265 µM): 1.07 | relative viability (RERF-LC-KJ; first compound 0.4 µM): 0.979 | relative viability (RERF-LC-KJ; first compound 1.265 µM): 0.747 | relative viability (RERF-LC-KJ; first compound 4 µM): 0.563 | relative viability (201T; first compound 0.04 µM): 0.54 | relative viability (201T; first compound 0.1265 µM): 0.62 | relative viability (201T; first compound 1.265 µM): 0.631 | relative viability (201T; first compound 4 µM): 0.374 | relative viability (NCI-H727; first compound 0.04 µM): 0.729 | relative viability (NCI-H727; first compound 0.1265 µM): 0.633 | relative viability (NCI-H727; first compound 0.4 µM): 0.597 | relative viability (NCI-H727; first compound 4 µM): 0.377 | relative viability (A-427; first compound 0.04 µM): 0.67 | relative viability (A-427; first compound 0.1265 µM): 0.776 | relative viability (A-427; first compound 0.4 µM): 0.744 | relative viability (A-427; first compound 1.265 µM): 0.656 | relative viability (A-427; first compound 4 µM): 0.679 | relative viability (NCI-H23; first compound 0.04 µM): 0.483 | relative viability (NCI-H23; first compound 0.1265 µM): 0.27 | relative viability (NCI-H23; first compound 0.4 µM): 0.213 | relative viability (NCI-H23; first compound 1.265 µM): 0.235 | relative viability (NCI-H23; first compound 4 µM): 0.174 | relative viability (NCI-H650; first compound 0.04 µM): 1.04 | relative viability (NCI-H650; first compound 0.1265 µM): 1.07 | relative viability (NCI-H650; first compound 0.4 µM): 0.901 | relative viability (NCI-H650; first compound 1.265 µM): 1.01 | relative viability (NCI-H650; first compound 4 µM): 0.683
